# From patent US20130331389A1, “Methods and Compositions for Cardiomyocyte Replenishment by Endogenous and Progenitor Stem Cells” (NATIONAL CHENG KUNG UNIVERSITY, priority 2012, published 2013)
# Columns and labels:
# Assay type in all cases: in vivo, mouse
# MerCreMer/ZEG (M/Z) mice = assay: Echocardiography after myocardial infarction (ejection fraction); conditions: echocardiography at one and two months post-infarction
# Procedure: M/Z mice were subjected to experimental myocardial infarction (MI) one month after the last tamoxifen injection. MI was generated by ligating the left anterior descending coronary artery at 2-3 mm distal to the left atrial appendage. For cell transplantation experiments, intramyocardial injections were performed immediately after coronary ligation. A total of 6×10^5 cardiac Sca-1^+ cells were injected per mouse in two divided injections (5 μl/injection). For BrdU labeling, the mice were subcutaneously implanted with osmotic minipump (Alzet) at the time of surgery and 40 μg/μl of BrdU (Sigma) was administrated. For immunohistological studies, mice were sacrificed and the hearts were harvested at different time points following experimental MI surgery. Cardiac performances were assessed by echocardiography at 28 and 56 days after operation using Vevo 770 (Visualsonics, Toronto, Canada).
# To induce Cre recombination to achieve GFP labeling of cardiomyocytes, tamoxifen (Sigma) was dissolved in sunflower oil (Sigma) at a concentration of 5 mg/ml. The tamoxifen solution was injected intraperitoneally into M/Z mice daily at a dosage of 40 μg per 1 g body weight for 14 days, and the same dosage was injected twice daily for short-term labeling using methods known in the art (Laugwitz, K.-L. et al. Nature 433, 647-653 (2005)). […]
# TGF-β1 = assay: Quantitative RT-PCR of TGF-β1 in infarcted region of MI heart; conditions: day 3 and day 7 after injury
# Procedure: (§1) To induce Cre recombination to achieve GFP labeling of cardiomyocytes, tamoxifen (Sigma) was dissolved in sunflower oil (Sigma) at a concentration of 5 mg/ml. The tamoxifen solution was injected intraperitoneally into M/Z mice daily at a dosage of 40 μg per 1 g body weight for 14 days, and the same dosage was injected twice daily for short-term labeling using methods known in the art (Laugwitz, K.-L. et al. Nature 433, 647-653 (2005)). All experimental conditions were optimized prior to the PGE2, indomethacin and TGF-β Type I Receptor Kinase Inhibitor II (ALK5 Inhibitor II, ALK5i, Merck) treatments. The mice treated with PGE2 or PGI2 (Vegiopoulos, A. et al. Science 328, 1158-1161 (2010)) (both from Sigma) were injected intraperitoneally with 3.33 ng of drug per 1 g of body weight dissolved in absolute ethanol twice daily. […]
# (§2) The total RNA isolated from the ischemic region or remote area of MI hearts was reverse transcribed using the SuperScript III (Invitrogen) system according to the manufacturer's protocol. For quantitative PCR, the SYBR Green reagent (Maestrogen) was used according to the manufacturer's protocol. The analysis of relative gene expression was performed using the 2̂[−delta delta Ct] method and sequence-specific primers designed for semi-quantitative PCR and real-time RT-PCR (FIG. 11).
# Nkx2.5 = assay: Quantitative RT-PCR of Nkx2.5 in MI heart and in isolated cardiac Sca-1+ cells
# Procedure: as §1
# as §2, with “11). […]” for “11).”
# B220 = assay: Quantitative RT-PCR of B cell marker B220 in infarct region; conditions: both young and old mice; day 3 post-infarction
# Procedure: as §1, §2
# [1] = tested on: M1 (CD11b+/CD11c+) and M2 (CD11b+/CD206+) macrophages; assay: Immunostaining of M1 and M2 macrophages in heart sections day 3 post-infarction; conditions: young mice
# Procedure: as §1, with “daily. For the indomethacin treatment, mice were fed with water containing indomethacin (Sigma, 15 μg/ml) for different periods of time.” for “daily.”
# The harvested hearts were fixed with 4% paraformaldehyde and embedded in paraffin. […] A DAB substrate kit (Vector Laboratories) was used for immunohistochemistry and appropriate secondary antibodies (Invitrogen or Abcam) were used for visualization under a fluorescence microscope. […] The appropriate secondary antibodies (Invitrogen or Jackson ImmunoResearch) were used for visualization under a fluorescence microscope. […]
structure (smiles),measurement,setting,value
"CCCCC[C@H](O)/C=C/C1C(O)CC(=O)C1C/C=C\CCCC(=O)O (stereo partly drawn) [PGE2, (5Z,11α,13E,15S)-7-[3-hydroxy-2-(3-hydroxyoct-1-enyl)-5-oxo-cyclopentyl]hept-5-enoic acid]",cardiac function post-MI,MerCreMer/ZEG (M/Z) mice,improved
same,expression of TGF-β1,TGF-β1; aged mice,decline
same,expression of TGF-β1,TGF-β1; young mice,not significantly altered
same,expression of Nkx2.5 in Sca-1+ cells,Nkx2.5; cardiac Sca-1+ cells isolated on day 3 after injury,elevated
same,expression of Nkx2.5 in the MI heart,"Nkx2.5; young mice, fold change normalized to sham",enhances
same,B220 level,B220,reduced
same,number of M1 macrophage,[1],reduced
same,number of M2 macrophage,[1],increased
